Earlier results in patent publication US9446009B2, “Methods for treating conditions of the nail unit” (Hallux, Inc., priority 2004, dated 2016).
Values after ≈ are worked out from the molar mass of the structure shown.

Legend:
Details in all cases: in vitro
[1] = tested on: Trichophyton mentagrophytes
[2] = tested on: Trichophyton rubrum
[3] = tested on: Trichophyton verrucosum
[4] = tested on: Trichophyton tonsurans

Structure (SMILES) | MIC Ranges [1] | MIC Ranges [2] | MIC Ranges [3] [µg/mL] | MIC Ranges [4]
Cc1cc(C2CCCCC2)n(O)c(=O)c1 [Ciclopiroxolamine] | 0.5 to 1 µg/mL | <0.03 to 8 µg/mL | 4 (≈ 19.3 µM) | 0.125 to 1 µg/mL
COC1=CC(=O)C[C@@H](C)[C@]12Oc1c(Cl)c(OC)cc(OC)c1C2=O [Griseofulvin] | 0.016 to 0.125 µg/mL | 0.016 to 8 µg/mL | 1 (≈ 2.83 µM) | 0.5 to 1 µg/mL
CN(C/C=C/C#CC(C)(C)C)Cc1cccc2ccccc12 [Terbinafine] | ≦S0.001 mcg/ml | ≦0.0001-1 ^ mcg/ml | 1 (≈ 3.43 µM) | ≦0.001-0.008 mcg/ml
c1ccc(-c2ccc(C(c3ccccc3)n3ccnc3)cc2)cc1 (centres unmarked) [Bifonazole] | 0.125 to 0.25 µg/mL | <0.016 to 1 µg/mL | 8 (≈ 25.8 µM) | ≦0.016-0.5 mcg/ml

The remaining lines, values ahead:

MIC Ranges [1] | MIC Ranges [2] | MIC Ranges [3] [µg/mL] | MIC Ranges [4] | Structure (SMILES)
0.008 to 4 µg/mL |  | 4 (≈ 7.53 µM) | 0.016 to 0.125 µg/mL | CC(=O)N1CCN(c2ccc(OCC3COC(Cn4ccnc4)(c4ccc(Cl)cc4Cl)O3)cc2)CC1 (centres unmarked) [Ketoconazole]
16 to 32 µg/mL |  | 16 (≈ 52.2 µM) | 0.25 to 8 µg/mL | OC(Cn1cncn1)(Cn1cncn1)c1ccc(F)cc1F [Fluconazole]
1 µg/mL (≈ 2.4 µM) | 0.008 to 4 µg/mL | 4 (≈ 9.61 µM) | 0.016 to 0.25 µg/mL | Clc1ccc(COC(Cn2ccnc2)c2ccc(Cl)cc2Cl)c(Cl)c1 (centres unmarked) [Miconazole]
